Assay results as given in ChEMBL document CHEMBL6120975 (2024).
Calls of active or inactive are those of the source. No cut-off for these calls is given here. Where a SMILES comes first, the peptide text is derived from it. [ ]: non-standard residue; d: D form. The star is where a group is joined. X3 = NCCOCCOCCOCCOCCOCCOCCOCCOCCCC(=O)*; Stearoyl = CCCCCCCCCCCCCCCCCC(=O)*; Palmitoyl = CCCCCCCCCCCCCCCC(=O)*; X1 = NCCOCCOCCOCCOCCOCCOCCCC(=O)*; X2 = NCCOCCOCCOCCOCCCC(=O)*; Sar = CNCC(=O)O

Assays:
[1] = molecular target: T1, Neuronal acetylcholine receptor; alpha9/alpha10 (Homo sapiens) (UniProt Q9UGM1+Q9GZZ6); experiment: Inhibition of human alpha9alpha10 nAChR expressed in acetylcholine-induced Xenopus laevis oocytes assessed as inhibition of acetylcholine-induced current at 30 nM incubated for 5 mins by two electrode voltage-clamp assay; format: cell-based; conditions: Oocyte
[2] = molecular target: Neuronal acetylcholine receptor; alpha9/alpha10 (Homo sapiens, UniProt Q9GZZ6+Q9UGM1); experiment: Inhibition of human alpha9alpha10 nAChR expressed in acetylcholine-induced Xenopus laevis oocytes assessed as inhibition of acetylcholine-induced current incubated for 5 mins by two electrode voltage-clamp assay; format: cell-based, Oocyte
Chain of Neuronal acetylcholine receptor; alpha9/alpha10 (Q9UGM1 whole entry): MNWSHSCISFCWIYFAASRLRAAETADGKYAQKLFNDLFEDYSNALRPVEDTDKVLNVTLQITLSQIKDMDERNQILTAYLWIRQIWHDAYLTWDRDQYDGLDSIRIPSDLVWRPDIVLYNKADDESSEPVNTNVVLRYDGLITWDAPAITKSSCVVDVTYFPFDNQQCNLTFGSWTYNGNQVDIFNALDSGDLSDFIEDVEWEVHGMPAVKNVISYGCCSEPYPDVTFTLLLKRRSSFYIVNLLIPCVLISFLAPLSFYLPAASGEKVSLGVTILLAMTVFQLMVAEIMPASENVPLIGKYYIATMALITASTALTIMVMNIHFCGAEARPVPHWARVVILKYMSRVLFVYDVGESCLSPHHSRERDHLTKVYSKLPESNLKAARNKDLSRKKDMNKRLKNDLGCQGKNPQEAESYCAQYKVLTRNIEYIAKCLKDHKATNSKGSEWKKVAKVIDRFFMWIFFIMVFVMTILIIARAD
Chain of Neuronal acetylcholine receptor; alpha9/alpha10 (Q9GZZ6 whole entry): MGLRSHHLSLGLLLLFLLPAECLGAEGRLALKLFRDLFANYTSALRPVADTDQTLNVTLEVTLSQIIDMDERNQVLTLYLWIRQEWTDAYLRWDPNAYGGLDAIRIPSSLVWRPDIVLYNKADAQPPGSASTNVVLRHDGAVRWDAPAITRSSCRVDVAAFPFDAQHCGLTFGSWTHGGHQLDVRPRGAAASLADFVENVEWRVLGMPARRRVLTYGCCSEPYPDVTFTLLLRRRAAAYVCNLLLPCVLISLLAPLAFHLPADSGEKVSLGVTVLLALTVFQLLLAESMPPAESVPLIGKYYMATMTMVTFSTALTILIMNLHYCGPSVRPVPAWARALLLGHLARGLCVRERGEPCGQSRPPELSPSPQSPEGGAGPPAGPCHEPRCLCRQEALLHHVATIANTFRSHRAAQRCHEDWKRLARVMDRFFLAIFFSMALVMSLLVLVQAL

[3] = molecular target: Neuronal acetylcholine receptor subunit alpha-7 (Homo sapiens, UniProt P36544); experiment: Inhibition of human alpha7 nAChR expressed in acetylcholine-induced Xenopus laevis oocytes assessed as inhibition of acetylcholine-induced current incubated for 5 mins by two electrode voltage-clamp assay; format: cell-based, Oocyte
Chain of Neuronal acetylcholine receptor subunit alpha-7 (P36544 whole entry): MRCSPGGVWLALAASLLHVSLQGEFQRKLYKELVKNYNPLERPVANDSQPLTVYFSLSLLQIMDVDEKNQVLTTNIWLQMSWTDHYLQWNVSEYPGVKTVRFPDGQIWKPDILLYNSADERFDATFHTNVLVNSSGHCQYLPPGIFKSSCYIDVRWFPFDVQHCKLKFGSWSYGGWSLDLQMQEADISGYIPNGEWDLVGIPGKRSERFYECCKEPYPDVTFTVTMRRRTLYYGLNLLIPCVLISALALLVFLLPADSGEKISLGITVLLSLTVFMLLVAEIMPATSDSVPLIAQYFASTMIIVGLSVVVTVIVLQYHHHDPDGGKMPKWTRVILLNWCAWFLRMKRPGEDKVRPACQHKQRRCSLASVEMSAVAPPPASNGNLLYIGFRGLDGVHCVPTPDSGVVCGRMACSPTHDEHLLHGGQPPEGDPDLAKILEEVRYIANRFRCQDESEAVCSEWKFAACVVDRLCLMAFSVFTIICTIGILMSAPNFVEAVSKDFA

[4] = molecular target: T2, Voltage-dependent N-type calcium channel subunit alpha-1B (Homo sapiens, UniProt Q00975); experiment: Inhibition of human eGFP tagged Cav2.2 channel transfected in HEK293T cells co-expressed with human GABAB receptor assessed as inhibition of Cav2.2-mediated Ba2+ current by whole-cell patch clamp assay; format: cell-based
Target sequence in this assay (Q00975 whole entry): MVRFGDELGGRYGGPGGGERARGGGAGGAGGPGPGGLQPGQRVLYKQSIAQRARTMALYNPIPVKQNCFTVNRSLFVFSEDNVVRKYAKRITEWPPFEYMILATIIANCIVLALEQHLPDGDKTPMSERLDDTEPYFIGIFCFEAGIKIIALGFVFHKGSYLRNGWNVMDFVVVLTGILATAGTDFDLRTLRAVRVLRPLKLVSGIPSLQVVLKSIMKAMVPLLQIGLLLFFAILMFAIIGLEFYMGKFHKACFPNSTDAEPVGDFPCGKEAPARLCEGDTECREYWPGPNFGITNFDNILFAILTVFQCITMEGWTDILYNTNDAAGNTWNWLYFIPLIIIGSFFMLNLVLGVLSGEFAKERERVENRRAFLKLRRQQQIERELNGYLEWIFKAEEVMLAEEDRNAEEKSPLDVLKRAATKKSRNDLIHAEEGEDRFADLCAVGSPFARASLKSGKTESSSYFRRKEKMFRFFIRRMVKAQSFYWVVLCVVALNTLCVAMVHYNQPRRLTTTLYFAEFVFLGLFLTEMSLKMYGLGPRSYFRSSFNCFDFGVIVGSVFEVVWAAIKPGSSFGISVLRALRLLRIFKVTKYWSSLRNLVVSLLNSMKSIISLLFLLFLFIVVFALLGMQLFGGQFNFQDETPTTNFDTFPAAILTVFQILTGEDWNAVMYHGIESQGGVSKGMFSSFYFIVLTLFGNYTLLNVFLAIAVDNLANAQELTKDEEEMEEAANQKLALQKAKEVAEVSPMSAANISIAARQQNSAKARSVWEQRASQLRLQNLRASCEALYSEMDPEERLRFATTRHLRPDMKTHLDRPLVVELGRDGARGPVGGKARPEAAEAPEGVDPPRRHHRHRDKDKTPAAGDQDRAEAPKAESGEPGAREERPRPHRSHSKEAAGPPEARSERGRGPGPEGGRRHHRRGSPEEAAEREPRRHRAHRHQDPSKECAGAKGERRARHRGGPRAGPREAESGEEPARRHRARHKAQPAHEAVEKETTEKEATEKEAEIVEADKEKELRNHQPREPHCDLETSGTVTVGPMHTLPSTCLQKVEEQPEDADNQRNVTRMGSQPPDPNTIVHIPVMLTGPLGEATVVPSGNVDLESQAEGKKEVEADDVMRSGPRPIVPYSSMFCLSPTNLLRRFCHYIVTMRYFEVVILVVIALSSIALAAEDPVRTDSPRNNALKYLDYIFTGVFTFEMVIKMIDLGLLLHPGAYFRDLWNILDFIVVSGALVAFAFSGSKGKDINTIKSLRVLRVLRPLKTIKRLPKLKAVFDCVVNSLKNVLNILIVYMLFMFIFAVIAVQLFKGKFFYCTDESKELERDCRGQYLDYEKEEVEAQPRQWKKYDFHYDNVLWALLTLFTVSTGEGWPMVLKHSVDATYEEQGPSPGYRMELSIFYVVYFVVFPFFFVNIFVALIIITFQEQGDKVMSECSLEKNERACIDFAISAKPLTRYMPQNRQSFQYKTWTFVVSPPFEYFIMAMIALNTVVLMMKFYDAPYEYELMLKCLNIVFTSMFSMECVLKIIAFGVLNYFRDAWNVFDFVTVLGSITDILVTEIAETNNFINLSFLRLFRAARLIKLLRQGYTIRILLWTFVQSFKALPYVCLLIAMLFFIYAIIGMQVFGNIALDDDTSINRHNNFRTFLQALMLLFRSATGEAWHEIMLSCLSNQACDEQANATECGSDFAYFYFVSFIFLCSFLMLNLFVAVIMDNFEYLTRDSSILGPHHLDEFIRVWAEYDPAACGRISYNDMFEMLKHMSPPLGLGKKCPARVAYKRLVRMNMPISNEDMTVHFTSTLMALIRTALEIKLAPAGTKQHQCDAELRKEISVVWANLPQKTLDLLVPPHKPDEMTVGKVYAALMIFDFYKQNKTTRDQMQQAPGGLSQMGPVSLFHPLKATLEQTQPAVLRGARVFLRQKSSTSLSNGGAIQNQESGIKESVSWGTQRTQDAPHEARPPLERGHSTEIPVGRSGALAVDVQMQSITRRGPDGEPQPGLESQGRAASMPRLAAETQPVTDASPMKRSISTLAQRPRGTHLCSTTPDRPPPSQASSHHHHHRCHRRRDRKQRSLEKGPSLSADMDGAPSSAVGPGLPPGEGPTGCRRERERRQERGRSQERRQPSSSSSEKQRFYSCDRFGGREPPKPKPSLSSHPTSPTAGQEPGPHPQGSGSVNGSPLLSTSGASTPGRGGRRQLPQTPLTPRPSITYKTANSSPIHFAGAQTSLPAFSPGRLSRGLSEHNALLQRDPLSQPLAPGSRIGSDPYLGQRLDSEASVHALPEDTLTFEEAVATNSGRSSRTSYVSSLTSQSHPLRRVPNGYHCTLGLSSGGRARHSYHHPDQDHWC

[5] = molecular target: T2, Voltage-dependent N-type calcium channel subunit alpha-1B; experiment: Inhibition of human eGFP tagged Cav2.2 channel transfected in HEK293T cells co-expressed with human GABAB receptor assessed as inhibition of Cav2.2-mediated Ba2+ current at 100 uM by whole-cell patch clamp assay relative to control; format: cell-based
Target sequence in this assay (Q00975 whole entry, looked up): as the sequence (Q00975 whole entry) above

[6] = molecular target: Neuronal acetylcholine receptor; alpha3/beta4 (Homo sapiens) (UniProt P30926+P32297); experiment: Inhibition of human alpha3beta4 nAChR expressed in acetylcholine-induced Xenopus laevis oocytes assessed as inhibition of acetylcholine-induced current at 100 nM incubated for 5 mins by two electrode voltage-clamp assay; format: cell-based; conditions: Oocyte
[7] = molecular target: Neuronal acetylcholine receptor; alpha3/beta2 (Homo sapiens) (UniProt P17787+P32297); experiment: Inhibition of human alpha3beta2 nAChR expressed in acetylcholine-induced Xenopus laevis oocytes assessed as inhibition of acetylcholine-induced current at 100 nM incubated for 5 mins by two electrode voltage-clamp assay; format: cell-based; conditions: Oocyte
[8] = molecular target: Neuronal acetylcholine receptor; alpha4/beta4 (Homo sapiens) (UniProt P30926+P43681); experiment: Inhibition of human alpha4beta4 nAChR expressed in acetylcholine-induced Xenopus laevis oocytes assessed as inhibition of acetylcholine-induced current at 100 nM incubated for 5 mins by two electrode voltage-clamp assay; format: cell-based; conditions: Oocyte
[9] = molecular target: T1, Neuronal acetylcholine receptor; alpha9/alpha10 (Homo sapiens); experiment: Inhibition of human alpha9alpha10 nAChR expressed in acetylcholine-induced Xenopus laevis oocytes assessed as inhibition of acetylcholine-induced current at 100 nM incubated for 5 mins by two electrode voltage-clamp assay; format: cell-based; conditions: Oocyte
[10] = molecular target: Neuronal acetylcholine receptor; alpha4/beta2 (Homo sapiens) (UniProt P17787+P43681); experiment: Inhibition of human alpha4beta2 nAChR expressed in acetylcholine-induced Xenopus laevis oocytes assessed as inhibition of acetylcholine-induced current at 100 nM incubated for 5 mins by two electrode voltage-clamp assay; format: cell-based; conditions: Oocyte
Rattus norvegicus [11] = experiment: Antinociception activity in Oxaliplatin-induced cold allodynia in rat model assessed as analgesic effect at 250 microg/kg, sc measured after 1 hr; format: functional, organism-based; conditions: dose 250.0 µg/kg
Rattus norvegicus [12] = experiment: Antinociception activity in Oxaliplatin-induced cold allodynia in rat model assessed as analgesic effect at 250 microg/kg, sc measured after 4 to 8 hr; format: functional, organism-based; conditions: dose 250.0 µg/kg, time 4-8 hrs
Rattus norvegicus [13] = experiment: Antinociception activity in Oxaliplatin-induced cold allodynia in rat model assessed as analgesic effect at 250 microg/kg, iv measured after 1 to 12 hr; format: functional, organism-based; conditions: dose 250.0 µg/kg, time 1-12 hrs
[14] = Stability in human serum measured upto 24 hrs; format: ADME, cell-free
[15] = molecular target: T2, Voltage-dependent N-type calcium channel subunit alpha-1B; experiment: Inhibition of human eGFP tagged Cav2.2 channel transfected in HEK293T cells co-expressed with human GABAB receptor assessed as inhibition of Cav2.2-mediated Ba2+ current at 1 uM by whole-cell patch clamp assay; format: cell-based
Target sequence in this assay (Q00975 whole entry, looked up): as the sequence (Q00975 whole entry) above

[16] = molecular target: T2, Voltage-dependent N-type calcium channel subunit alpha-1B; experiment: Inhibition of human eGFP tagged Cav2.2 channel transfected in HEK293T cells co-expressed with human GABAB receptor assessed as inhibition of Cav2.2-mediated Ba2+ current at 100 uM by whole-cell patch clamp assay; format: cell-based
Target sequence in this assay (Q00975 whole entry, looked up): as the sequence (Q00975 whole entry) above

[17] = Stability in human serum assessed as parent compound remaining measured after 24 hrs; format: ADME, cell-free
Rattus norvegicus [18] = experiment: Antinociceptive activity in Chronic constriction injury rat model assessed as reduction in pain at 250 microg/kg, IM administration and measured after 2 hrs; format: functional, organism-based; conditions: dose 250.0 µg/kg
[19] = Stability in human plasma assessed as half life; format: ADME, cell-free

Row | Molecule | inhibition [1] | IC50 [2] [µM] | inhibition [15] | inhibition [16] | remaining at 24 h [17] [%] | Activity (Rattus norvegicus [18]) | other results
1 | CC[C@H](C)[C@H](NC(=O)[C@H](CCCNC(=N)N)NC(=O)[C@H](CCCNC(=N)N)NC(=O)[C@H](Cc1ccc(O)cc1)NC(=O)[C@H](CCCNC(=N)N)NC(=O)[C@H](CCCNC(=N)N)NC(=O)[C@H](CCCNC(=N)N)NC(=O)[C@H](CCCNC(=N)N)NC(=O)[C@H](CC(=O)O)NC(=O)[C@H](Cc1ccc(O)cc1)NC(=O)[C@@H]1CCCN1C(=O)[C@H](CO)NC(=O)[C@H](CCCNC(=N)N)NC(=O)[C@H](Cc1ccc(O)cc1)NC(=O)[C@H](CCCNC(=N)N)NC(=O)CNC)C(=O)N[C@H](C(=O)N[C@@H](CC(=O)O)C(N)=O)[C@@H](C)O (H-[Sar]RYRSPYDRRRRYRRITD-NH2) | Active | 0.0142 | – | – | – | – | IC50 [3]: 0.121 µM; IC50 [4]: 7.8 µM; inhibition [5]: 100%; inhibition [6]: inactive; inhibition [7]: inactive; inhibition [8]: inactive; inhibition [9]: inactive; inhibition [10]: Active; Activity (Rattus norvegicus [11]): inactive; Activity (Rattus norvegicus [12]): Active; Activity (Rattus norvegicus [13]): Active
2 | CCCCCCCCCCCCCCCC(=O)NCC(=O)N[C@@H](CCCNC(=N)N)C(=O)N[C@@H](Cc1ccc(O)cc1)C(=O)N[C@@H](CCCNC(=N)N)C(=O)N[C@@H](CO)C(=O)N1CCC[C@H]1C(=O)N[C@@H](Cc1ccc(O)cc1)C(=O)N[C@@H](CC(=O)O)C(=O)N[C@@H](CCCNC(=N)N)C(=O)N[C@@H](CCCNC(=N)N)C(=O)N[C@@H](CCCNC(=N)N)C(=O)N[C@@H](CCCNC(=N)N)C(=O)N[C@@H](Cc1ccc(O)cc1)C(=O)N[C@@H](CCCNC(=N)N)C(=O)N[C@@H](CCCNC(=N)N)C(=O)N[C@H](C(=O)N[C@H](C(=O)N[C@@H](CC(=O)O)C(N)=O)[C@@H](C)O)[C@@H](C)CC (Palmitoyl-GRYRSPYDRRRRYRRITD-NH2) | inactive | – | Active; Compound Showed Weak Inhibitory Activity | Active; Compound Showed Minimal Activity | – | – | Stability [14]: Stable
3 | CCCCCCCCCCCCCCCCCC(=O)NCC(=O)N[C@@H](CCCNC(=N)N)C(=O)N[C@@H](Cc1ccc(O)cc1)C(=O)N[C@@H](CCCNC(=N)N)C(=O)N[C@@H](CO)C(=O)N1CCC[C@H]1C(=O)N[C@@H](Cc1ccc(O)cc1)C(=O)N[C@@H](CC(=O)O)C(=O)N[C@@H](CCCNC(=N)N)C(=O)N[C@@H](CCCNC(=N)N)C(=O)N[C@@H](CCCNC(=N)N)C(=O)N[C@@H](CCCNC(=N)N)C(=O)N[C@@H](Cc1ccc(O)cc1)C(=O)N[C@@H](CCCNC(=N)N)C(=O)N[C@@H](CCCNC(=N)N)C(=O)N[C@H](C(=O)N[C@H](C(=O)N[C@@H](CC(=O)O)C(N)=O)[C@@H](C)O)[C@@H](C)CC (Stearoyl-GRYRSPYDRRRRYRRITD-NH2) | inactive | – | Active; Compound Showed Weak Inhibitory Activity | Active; Compound Showed Minimal Activity | – | – | Stability [14]: Stable
4 | CC[C@H](C)[C@H](NC(=O)[C@H](CCCNC(=N)N)NC(=O)[C@H](CCCNC(=N)N)NC(=O)[C@H](Cc1ccc(O)cc1)NC(=O)[C@H](CCCNC(=N)N)NC(=O)[C@H](CCCNC(=N)N)NC(=O)[C@H](CCCNC(=N)N)NC(=O)[C@H](CCCNC(=N)N)NC(=O)[C@H](CC(=O)O)NC(=O)[C@H](Cc1ccc(O)cc1)NC(=O)[C@@H]1CCCN1C(=O)[C@H](CO)NC(=O)[C@H](CCCNC(=N)N)NC(=O)[C@H](Cc1ccc(O)cc1)NC(=O)[C@H](CCCNC(=N)N)NC(=O)CNC(=O)CCCOCCOCCOCCOCCOCCOCCN)C(=O)N[C@H](C(=O)N[C@@H](CC(=O)O)C(N)=O)[C@@H](C)O (X1-GRYRSPYDRRRRYRRITD-NH2) | Active | 0.0159 | Active; Compound Showed Weak Inhibitory Activity | Active; Compound Showed Minimal Activity | > 80 | inactive | –
5 | CC[C@H](C)[C@H](NC(=O)[C@H](CCCNC(=N)N)NC(=O)[C@H](CCCNC(=N)N)NC(=O)[C@H](Cc1ccc(O)cc1)NC(=O)[C@H](CCCNC(=N)N)NC(=O)[C@H](CCCNC(=N)N)NC(=O)[C@H](CCCNC(=N)N)NC(=O)[C@H](CCCNC(=N)N)NC(=O)[C@H](CC(=O)O)NC(=O)[C@H](Cc1ccc(O)cc1)NC(=O)[C@@H]1CCCN1C(=O)[C@H](CO)NC(=O)[C@H](CCCNC(=N)N)NC(=O)[C@H](Cc1ccc(O)cc1)NC(=O)[C@H](CCCNC(=N)N)NC(=O)CNC(=O)CCCOCCOCCOCCOCCN)C(=O)N[C@H](C(=O)N[C@@H](CC(=O)O)C(N)=O)[C@@H](C)O (X2-GRYRSPYDRRRRYRRITD-NH2) | Active | 0.0078 | Active; Compound Showed Weak Inhibitory Activity | Active; Compound Showed Minimal Activity | > 80 | inactive | –
6 | CC[C@H](C)[C@H](NC(=O)[C@H](CCCNC(=N)N)NC(=O)[C@H](CCCNC(=N)N)NC(=O)[C@H](Cc1ccc(O)cc1)NC(=O)[C@H](CCCNC(=N)N)NC(=O)[C@H](CCCNC(=N)N)NC(=O)[C@H](CCCNC(=N)N)NC(=O)[C@H](CCCNC(=N)N)NC(=O)[C@H](CC(=O)O)NC(=O)[C@H](Cc1ccc(O)cc1)NC(=O)[C@@H]1CCCN1C(=O)[C@H](CO)NC(=O)[C@H](CCCNC(=N)N)NC(=O)[C@H](Cc1ccc(O)cc1)NC(=O)[C@H](CCCNC(=N)N)NC(=O)CNC(=O)CCCOCCOCCOCCOCCOCCOCCOCCOCCN)C(=O)N[C@H](C(=O)N[C@@H](CC(=O)O)C(N)=O)[C@@H](C)O (X3-GRYRSPYDRRRRYRRITD-NH2) | Active | 0.0118 | Active; Compound Showed Weak Inhibitory Activity | Active; Compound Showed Minimal Activity | > 80 | inactive | –
7 | H-GRYRSPYDRRRRYRRITD-NH2 | – | – | – | – | – | – | half-life [19]: < 30 min
